According to patent US20220331415A1, “IMMUNOACTIVE MICROPARTICLES AND USES THEREOF” (The Regents of the University of California, priority 2019, published 2022):

Tests used:
TGF-β receptor = settings: TGF-β inhibitors; cited from earlier work
[1] = system: Treg formation (Foxp3+ T cells); experiment: Inhibition of Treg formation: Foxp3 expression in naïve T cells co-cultured with microparticles, flow cytometry; type: cell-based; settings: same concentration of TGF-β inhibitors, galunisertib compared with SB505124, after 4 days
Text: FIG. 16 further describes TGF-β inhibitors galunisertib (LY2157299) and SB505124 (top). […] Naïve T cells were co-cultured with microparticles and flow cytometry is being used after 4 days to evaluate the intracellular Foxp3 expression.
Thus, in one embodiment, an inhibitor or blocker of TGF-β is included or incorporated into the microparticles of the invention. A TGF-β inhibitor (TGF-βi) such as a TGF-β receptor inhibitor may be used. Non-limiting examples include galinusertib (LY2157299) or SB505124. […] This TGFβ inhibitor used for further studies as described in FIGS. 16-20.
To efficiently stimulate the proliferation of cytotoxic T cells, the microparticles of the invention should suppress formation of regulatory T cells (Tregs) from CD4+ cells attracted to the microparticles. Sustained presence of TGF-β inhibitors can suppress Tregs formation. FIG. 15 and FIG. 16 depict two TGF-β inhibitors used here to show the suppression effect. […] Incorporation of β-cyclodextrin was used to increase the affinity and loading of Galunisertib to microparticles (FIG. 17). β-cyclodextrin was conjugated to Alginate or Alginate-Heparin polymers.

[2] = compared to IL-2, cited from earlier work

| Molecule | IC50 (TGF-β receptor) [nM] | Treg suppression (Foxp3 expression, number of Foxp3+ cells) [1] | Treg suppression (Foxp3 expression, number of Foxp3+ cells) ([1]; listed as Galunisertib) | expansion of cytotoxic T cells [2] | toxicity ([2]; lower Treg expansion, reduced pulmonary edema) | antitumor responses ([2]; in vivo) |
| --- | --- | --- | --- | --- | --- | --- |
| Cc1cccc(-c2[nH]c(C(C)(C)C)nc2-c2ccc3c(c2)OCO3)n1 [SB505124] | 129 |  |  |  |  |  |
| Cc1cccc(-c2nn3c(c2-c2ccnc4ccc(C(N)=O)cc24)CCC3)n1 [galunisertib] | 56 | stronger Treg suppression | higher degree of Tregs suppression |  |  |  |
| IL-2 superkine: artificial variant of IL-2 containing mutations L80F/R81D/L85V/I86V/I92F (SEQ ID NO: 3) (protein) MGEFAPTSSSTKKTQLQLEHLLLDLQMILNGINNYKNPKLTRMLTFKFYMPKKATELKHLQCLEEELKPLEEVLNLAQSKNFHFDPRDVVSNINVFVLELKGSETTFMCEYADETATIVEFLNRWITFCQSIISTLTH |  |  |  | superior expansion | proportionally less toxicity | improved antitumor responses |
